{"source": "BindingDB's records for doi:10.1016/s0960-894x(00)00662-4", "about": "(Dupont Pharmaceuticals, 2001)", "experiment": "Compound was evaluated for its ability to inhibit the NNRTI HIV-1 enzyme by 50% using enzyme assay", "data": [{"smiles": "O=C1Nc2ccc(Cl)cc2[C@@](C#CC2CC2)(C(F)(F)F)N1", "values": [{"measurement": "IC50", "result": 31, "unit": "nM"}]}]}
